Measured values from patent EP4389751A1, “HETEROCYCLIC COMPOUNDS AND USES THEREOF” (Kumquat Biosciences Inc., priority 2021, dated 2024).
Like-named read-outs stand apart in the source and are kept apart here.

Key:
GP2D cells = assay: Cell proliferation assay (CellTiter-Glo), K-Ras G12D cells; assay type: cell-based; details: read-out: Inhibition of GP2D Cells (IC50)
Procedure: ASPC-1 (ATCC CRL-1682), Panc-10.05 (ATCC CRL-2547), A427, and GP2D (Sigma 95090714) cell lines comprise a G12D mutation and can be used to assess Ras cellular signaling in vitro, e.g., in response to the compounds herein. […] ASPC-1 culture medium is prepared with RPMI-1640 and 10% heat-inactivated FBS. Panc-10.05 culture medium is prepared with RPMI-1640, 10 Units/ml human recombinant insulin, and 10% FBS. A427 cell culture is prepared with RPMI-1640 and 10% heat-inactivated FBS. GP2D culture medium is prepared with DMEM with 2mM glutamine and 10% heat-inactivated FBS. A Cell Titer-Glo (CTG) luminescent based assay (Promega) is used to assess growth of the cells, as a measurement of the ability of the compounds herein to inhibit Ras signaling in the cells. The cells (e.g., 800 per well) are seeded in their respective culture medium in standard tissue culture-treated 384-well format plates (Falcon #08-772-116) or ultra-low attachment surface 384-well format plates (S-Bio # MS-9384UZ ). The day after plating, cells are treated with a dilution series (e.g., a 9 point 3-fold dilution series) of the compounds herein (e.g., approximately 40 µl final volume per well). Cell viability can be monitored (e.g., approximately 5 days later) according to the manufacturer's recommended instructions, where the CellTiter-Glo reagent is added (e.g., approximately 10 µl), vigorously mixed, covered, and placed on a plate shaker (e.g., approximately for 20 min) to ensure sufficient cell lysis prior to assessment of luminescent signal. The IC50 values are determined using the four parameter fit. The resulting IC50 value is a measurement of the ability of the compounds herein to reduce cell growth of Ras-driven cells (e.g., tumor cell lines) in vitro and/or in vivo.

K-Ras G12S = biological target: T1, K-Ras G12S (Homo sapiens, UniProt P01116, G12S); assay: HTRF assay of the K-Ras / SOS1 interaction; assay type: biochemical; details: IC50 (against K-Ras G12D) to IC50 (against K-Ras G12S)
T1 construct: made in house; host or cells: E. coli (e.g., BL21 (DE3))
In short: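 Compounds (duplicates, 10 µM to 0.01 µM) were incubated ≥~10 min with Eu-labelled GST-K-Ras G12S and XL665-labelled His-hSOS1 in HEPES pH 7.4 buffer containing NaCl, DTT, BSA and Igepal. Disruption measured as HTRF emission ratio 665/620 nm, fitted to IC50.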

T1 sequence (P01116 1-188 isoform P01116-2 G12S): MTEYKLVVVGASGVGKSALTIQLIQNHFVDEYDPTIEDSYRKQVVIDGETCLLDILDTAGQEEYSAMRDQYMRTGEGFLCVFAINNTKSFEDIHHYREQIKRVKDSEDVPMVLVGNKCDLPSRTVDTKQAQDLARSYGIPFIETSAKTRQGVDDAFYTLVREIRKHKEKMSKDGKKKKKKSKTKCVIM

In the case of N#Cc1cnn(C(=O)N2CCC(Nc3nc(OC[C@@]45CCCN4C[C@H](F)C5)nc4c(F)c(-c5ccc(F)c6sc(N)nc56)c(Cl)cc34)CC2)c1 [Compound A151, 1-(4-((7-(2-amino-7-fluorobenzo[d]thiazol-4-yl)-6-chloro-8-fluoro-2-(((2R,7aS)-2-fluorotetrahydro-1H-pyrrolizin-7a(5H)-yl)methoxy)quinazolin-4-yl)amino)piperidine-1-carbonyl)-1H-pyrazole-4-carbonitrile], the IC50 (GP2D cells; GP2D cells (K-Ras G12D)) is reported as 1000 to 10000 nM and the “Ratio of IC50 KRAS G12D vs. IC50 KRAS G12S” value (“Ratio” below) (K-Ras G12S) is reported as “A (A: indicates that the ratio of IC50 against KrasG12D vs. IC50 against KrasG12S is 1-fold or greater)”.
With Nc1nc2c(-c3c(Cl)cc4c(NC5CCN(C(=O)n6cncn6)CC5)nc(OC[C@@]56CCCN5C[C@H](F)C6)nc4c3F)ccc(F)c2s1 [Compound A187, (4-((7-(2-amino-7-fluorobenzo[d]thiazol-4-yl)-6-chloro-8-fluoro-2-(((2R,7aS)-2-fluorotetrahydro-1H-pyrrolizin-7a(5H)-yl)methoxy)quinazolin-4-yl)amino)piperidin-1-yl)(1H-1,2,4-triazol-1-yl)methanone] the IC50 (GP2D cells; GP2D cells (K-Ras G12D)) was 1000 to 10000 nM and the “Ratio” value (K-Ras G12S) was “A (A: indicates that the ratio of IC50 against KrasG12D vs. IC50 against KrasG12S is 1-fold or greater)”.
With N#Cc1c(N)sc2c(F)ccc(-c3c(Cl)cc4c(C5C[C@H]6CC[C@@H](C5)N6C(=O)n5cncn5)nc(OC[C@@]56CCCN5C[C@H](F)C6)nc4c3F)c12 (stereo partly drawn) [Compound A235, 4-(4-((1R,5S)-8-(1H-1,2,4-triazole-1-carbonyl)-8-azabicyclo[3.2.1]octan-3-yl)-6-chloro-8-fluoro-2-(((2R,7aS)-2-fluorotetrahydro-1H-pyrrolizin-7a(5H)-yl)methoxy)quinazolin-7-yl)-2-amino-7-fluorobenzo[b]thiophene-3-carbonitrile] the IC50 (GP2D cells; GP2D cells (K-Ras G12D)) was 1000 to 10000 nM and the “Ratio” value (K-Ras G12S) was “A (A: indicates that the ratio of IC50 against KrasG12D vs. IC50 against KrasG12S is 1-fold or greater)”.
With N#Cc1cccn1C(=O)N1C2CCC1CN(c1nc(OC[C@@]34CCCN3C[C@H](F)C4)nc3c(F)c(-c4ccc(F)c5sc(N)nc45)c(Cl)cc13)C2 [Compound A121, 1-(3-(7-(2-amino-7-fluorobenzo[d]thiazol-4-yl)-6-chloro-8-fluoro-2-(((2R,7aS)-2-fluorotetrahydro-1H-pyrrolizin-7a(5H)-yl)methoxy)quinazolin-4-yl)-3,8-diazabicyclo[3.2. 1]octane-8-carbonyl)-1H-pyrrole-2-carbonitrile] the IC50 (GP2D cells; GP2d) was ≤ 1000 nM and the “Ratio” value (K-Ras G12S) was “A (A: indicates that the ratio of IC50 against KrasG12D vs. IC50 against KrasG12S is 1-fold or greater)”.
For Nc1nc2c(-c3c(Cl)cc4c(N5CC6CCC(C5)N6C(=O)n5cccn5)nc(OC[C@@]56CCCN5C[C@H](F)C6)nc4c3F)ccc(F)c2s1 [Compound A130, (3-(7-(2-amino-7-fluorobenzo[d]thiazol-4-yl)-6-chloro-8-fluoro-2-(((2R,7aS)-2-fluorotetrahydro-1H-pyrrolizin-7a(5H)-yl)methoxy)quinazolin-4-yl)-3,8-diazabicyclo[3.2.1]octan-8-yl)(1H-pyrazol-1-yl)methanone], the IC50 (GP2D cells; GP2d) was 1000 to 10000 nM and the “Ratio” value (K-Ras G12S) was “A (A: indicates that the ratio of IC50 against KrasG12D vs. IC50 against KrasG12S is 1-fold or greater)”.
For N#Cc1c(N)sc2c(F)ccc(-c3c(Cl)cc4c(N5CC6CCC(C5)N6C(=O)n5cccc5C#N)nc(OC[C@@]56CCCN5C[C@H](F)C6)nc4c3F)c12 [Compound A138, 1-(3-(7-(2-amino-3-cyano-7-fluorobenzo[b]thiophen-4-yl)-6-chloro-8-fluoro-2-(((2R,7aS)-2-fluorotetrahydro-1H-pyrrolizin-7a(5H)-yl)methoxy)quinazolin-4-yl)-3,8-diazabicyclo[3.2. 1]octane-8-carbonyl)-1H-pyrrole-2-carbonitrile], the IC50 (GP2D cells; GP2d) was ≤ 1000 nM and the “Ratio” value (K-Ras G12S) was “A (A: indicates that the ratio of IC50 against KrasG12D vs. IC50 against KrasG12S is 1-fold or greater)”.
With N#Cc1cnn(C(=O)N2CC3CCC(C2)N3c2nc(OC[C@@]34CCCN3C[C@H](F)C4)nc3c(F)c(-c4ccc(F)c5sc(N)nc45)c(Cl)cc23)c1 [Compound A112, 1-(8-(7-(2-amino-7-fluorobenzo[d]thiazol-4-yl)-6-chloro-8-fluoro-2-(((2R,7aS)-2-fluorotetrahydro-1H-pyrrolizin-7a(5H)-yl)methoxy)quinazolin-4-yl)-3,8-diazabicyclo[3.2. 1]octane-3-carbonyl)-1H-pyrazole-4-carbonitrile] the IC50 (GP2D cells; GP2d) was ≤ 1000 nM and the “Ratio” value (K-Ras G12S) was “A (A: indicates that the ratio of IC50 against KrasG12D vs. IC50 against KrasG12S is 1-fold or greater)”.
With Nc1nc2c(-c3c(Cl)cc4c(N5C6CCC5CN(C(=O)n5cncn5)C6)nc(OC[C@@]56CCCN5C[C@H](F)C6)nc4c3F)ccc(F)c2s1 [Compound A239, (8-(7-(2-amino-7-fluorobenzo[d]thiazol-4-yl)-6-chloro-8-fluoro-2-(((2R,7aS)-2-fluorotetrahydro-1H-pyrrolizin-7a(5H)-yl)methoxy)quinazolm-4-yl)-3,8-diazabicyclo[3.2.1]octan-3-yl)(1H-1,2,4-triazol-1-yl)methanone] the IC50 (GP2D cells; GP2D cells (K-Ras G12D)) was ≤ 1000 nM and the “Ratio” value (K-Ras G12S) was “A (A: indicates that the ratio of IC50 against KrasG12D vs. IC50 against KrasG12S is 1-fold or greater)”.
For Cc1cnn(C(=O)N2CCN(c3nc(OC[C@@]45CCCN4C[C@H](F)C5)nc4c(F)c(-c5ccc(F)c6sc(N)nc56)c(Cl)cc34)CC2)c1 [Compound A149, (4-(7-(2-amino-7-fluorobenzo[d]thiazol-4-yl)-6-chloro-8-fluoro-2-(((2R,7aS)-2-fluorotetrahydro-1H-pyrrolizin-7a(5H)-yl)methoxy)quinazolin-4-yl)piperazin-1-yl)(4-methyl-1H-pyrazol-1-yl)methanone], the IC50 (GP2D cells; GP2D cells (K-Ras G12D)) was 1000 to 10000 nM and the “Ratio” value (K-Ras G12S) was “A (A: indicates that the ratio of IC50 against KrasG12D vs. IC50 against KrasG12S is 1-fold or greater)”.
In the case of Nc1nc2c(-c3c(Cl)cc4c(N5CCC56CCN(C(=O)n5cncn5)CC6)nc(OC[C@@]56CCCN5C[C@H](F)C6)nc4c3F)ccc(F)c2s1 [Compound A288, (1-(7-(2-amino-7-fluorobenzo[d]thiazol-4-yl)-6-chloro-8-fluoro-2-(((2R,7aS)-2-fluorotetrahydro-1H-pyrrolizin-7a(5H)-yl)methoxy)quinazolin-4-yl)-1,7-diazaspiro[3.5]nonan-7-yl)(1H-1,2,4-triazol-1-yl)methanone], the IC50 (GP2D cells; GP2D cells (K-Ras G12D)) is reported as 1000 to 10000 nM and the “Ratio” value (K-Ras G12S) is reported as “A (A: indicates that the ratio of IC50 against KrasG12D vs. IC50 against KrasG12S is 1-fold or greater)”.
Nc1nc2c(-c3c(Cl)cc4c(NCCN5CC6CCC(C5)N6C(=O)n5cncn5)nc(OC[C@@]56CCCN5C[C@H](F)C6)nc4c3F)ccc(F)c2s1 [Compound A168, (3-(2-((7-(2-amino-7-fluorobenzo[d]thiazol-4-yl)-6-chloro-8-fluoro-2-(((2R,7aS)-2-fluorotetrahydro-1H-pyrrolizin-7a(5H)-yl)methoxy)quinazolin-4-yl)amino)ethyl)-3,8-diazabicyclo[3.2.1]octan-8-yl)(1H-1,2,4-triazol-1-yl)methanone] was tested, and the IC50 (GP2D cells; GP2d) was 1000 to 10000 nM and the “Ratio” value (K-Ras G12S) was “A (A: indicates that the ratio of IC50 against KrasG12D vs. IC50 against KrasG12S is 1-fold or greater)”.
Nc1nc2c(-c3c(Cl)cc4c(N5CC6(CN(C(=O)n7cncn7)C6)C5)nc(OC[C@@]56CCCN5C[C@H](F)C6)nc4c3F)ccc(F)c2s1 [Compound A264, (6-(7-(2-amino-7-fluorobenzo[d]thiazol-4-yl)-6-chloro-8-fluoro-2-(((2R,7aS)-2-fluorotetrahydro-1H-pyrrolizin-7a(5H)-yl)methoxy)quinazolm-4-yl)-2,6-diazaspiro[3.3]heptan-2-yl)(1H-1,2,4-triazol-1-yl)methanone] was tested, and the IC50 (GP2D cells; GP2D cells (K-Ras G12D)) was 1000 to 10000 nM and the “Ratio” value (K-Ras G12S) was “A (A: indicates that the ratio of IC50 against KrasG12D vs. IC50 against KrasG12S is 1-fold or greater)”.
C#Cc1c(F)ccc2cc(O)cc(-c3ncc4c(N5C6COCC5CN(C(=O)n5cc(C#N)cn5)C6)nc(OC[C@@]56CCCN5C[C@H](F)C6)nc4c3F)c12 [Compound A226, 1-(9-(7-(8-ethynyl-7-fluoro-3-hydroxynaphthalen-1-yl)-8-fluoro-2-(((2R,7aS)-2-fluorotetrahydro-1H-pyrrolizin-7a(5H)-yl)methoxy)pyrido[4,3-d]pyrimidin-4-yl)-3-oxa-7,9-diazabicyclo[3.3.1]nonane-7-carbonyl)-1H-pyrazole-4-carbonitrile] was tested, and the IC50 (GP2D cells; GP2D cells (K-Ras G12D)) was 1000 to 10000 nM and the “Ratio” value (K-Ras G12S) was “A (A: indicates that the ratio of IC50 against KrasG12D vs. IC50 against KrasG12S is 1-fold or greater)”.
